Experimental data as given in patent US9890147B2 (BAYER PHARMA AKTIENGESELLSCHAFT, priority 2012, dated 2018).

Assays:
B16F10 cells = assay: Cell proliferation assay (alamarBlue), B16F10; type: cell-based; conditions: Mus musculus, B16-F10, 96 hours incubation, inhibition of cell proliferation
Procedure: (§1) In accordance with the invention, the capability of the substances to inhibit cell proliferation was determined Cell viability was determined using the alamarBlue® reagent (Invitrogen) in a Victor X3 Multilabel Reader (Perkin Elmer). The excitation wavelength was 530 nm and the emission wavelenth […].
The B16F10 cells (ATCC, CRL-6475) were sown at a concentration of 300-500 cells/well in 100 μl growth medium (DMEM with phenol red, 10% FCS) on 96-well microtitre plates.
(§2) After an overnight incubation at 37° C., the fluorescence values (CI values) were determined. The plates were then treated with various substance dilutions (1E-5 M, 3E-6 M, 1E-6M, 3E-7 M, 1E-7 M, 3E-8 M, 1E-8 M) and incubated at 37° C. for 72 (MV4-11-, LOX-IMVI cells), 96 (MOLM-13-, B16F10-, MDA-MB-431-, Caov-3 cells), 120 (MOLP-8-, KMS-12-PE cells) or 168 (LAPC-4 cells) hours. The fluorescence values (CO values) were then determined. For the data analysis, the CI values were subtracted from the CO values and the results were compared between cells treated with different dilutions of the substance or with buffer solution only. These were used to calculate the IC 50 values (substance concentration required for 50% inhibition of cell proliferation).

BRD4 (BD1) = target: T1, BRD4 (BD1) (Homo sapiens, UniProt O60885); assay: Binding assay BRD4/acetylated peptide H4 (TR-FRET protein-protein interaction assay)
T1 construct: with relatively long constructs also being possible, preferably amino acids 44-168; made in house; host or cells: E. coli
How it was run: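 Displacement of biotin-Ac-H4 peptide from His6-tagged BRD4(BD1), final usually 10 nM, read as Eu-streptavidin to anti-His-XL665 TR-FRET (665/620 nm). Compounds tested at 11 doses up to 20 μM in duplicate, pH 7.5 HEPES, 22 °C then 4 °C incubation; IC50 by 4-parameter regression.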

MOLM-13 cells = assay: Cell proliferation assay (alamarBlue), MOLM-13; type: cell-based; conditions: Homo sapiens, 96 hours incubation, inhibition of cell proliferation
How it was run: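 IC50 = concentration giving 50% growth inhibition relative to buffer-treated cells, after subtracting baseline fluorescence taken before dosing. Compound applied at 1E-5 to 1E-8 M for 96 h at 37 °C in RPMI1640 with 10% FCS; alamarBlue signal at 530/590 nm.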

MV4-11 cells = assay: Cell proliferation assay (alamarBlue), MV4-11; type: cell-based; conditions: Homo sapiens, 72 hours incubation, inhibition of cell proliferation
Procedure: as §1
The MV4-11 cells (ATCC, CRL 9591) were sown at a concentration of 5000 cells/well in 100 μl growth medium (RPMI1640, 10% FCS) on 96-well microtitre plates.
as §2

Caov-3 cells = assay: Cell proliferation assay (alamarBlue), Caov-3; type: cell-based; conditions: Homo sapiens; inhibition of cell proliferation, Caov-3 (ovarian carcinoma), 96 hours
Procedure: as §1
The MDA-MB-231 cells (DSMZ, ACC 732) were sown at a concentration of 4000 cells/well in 100 μl growth medium (DMEM/Ham's F12 medium, 10% FCS) on 96-well microtitre plates. The Caov-3 cells (ATCC, HTB-75) were sown at a concentration of 2000 cells/well in 100 μl growth medium (MEM Earle's medium, 10% FCS) on 96-well microtitre plates.
as §2

LOX-IMVI cells = assay: Cell proliferation assay (alamarBlue), LOX-IMVI; type: cell-based; conditions: Homo sapiens, 72 hours incubation, inhibition of cell proliferation
Procedure: as §1
The LOX-IMVI cells (NCI-60) were sown at a concentration of 1000 cells/well in 100 μl growth medium (RPMI1640, 10% FCS) on 96-well microtitre plates.
as §2

MOLP-8 cells = assay: Cell proliferation assay (alamarBlue), MOLP-8; type: cell-based; conditions: Homo sapiens, 120 hours incubation, inhibition of cell proliferation
Procedure: as §1
The MOLP-8 cells (DSMZ, ACC 569) were sown at a concentration of 4000 cells/well in 100 μl growth medium (RPMI1640, 20% FCS) on 96-well microtitre plates.
as §2

KMS-12-PE cells = assay: Cell proliferation assay (alamarBlue), KMS-12-PE; type: cell-based; conditions: Homo sapiens, 120 hours incubation, inhibition of cell proliferation
Procedure: as §1
The KMS-12-PE cells (DSMZ, ACC 606) were sown at a concentration of 4000 cells/well in 100 μl growth medium (RPMI1640, 20% FCS) on 96-well microtitre plates.
as §2

Structure (SMILES)	IC50 (B16F10 cells) [nM]	IC50 (BRD4 (BD1)) [nM]	IC50 (MOLM-13 cells) [nM]	IC50 (MV4-11 cells) [nM]	IC50 (Caov-3 cells) [nM]	IC50 (LOX-IMVI cells) [nM]	IC50 (MOLP-8 cells) [nM]	IC50 (KMS-12-PE cells) [nM]
CNC(=O)N1N=C(c2ccc(N3CCN(C)CC3)cc2)c2cc(OC(F)(F)F)ccc2CC1C (racemic) [Example 250, (±)-N,4-dimethyl-1-[4-(4-methyl-1-piperazinyl)phenyl]-8-(trifluoromethoxy)-4,5-dihydro-3H-2,3-benzodiazepine-3-carboxamide]	100	40	140					
CNC(=O)N1N=C(c2ccc(-c3cn(C)nn3)cc2)c2cc(OC)c(OC)cc2CC1C (racemic) [Example 45, (±)-7,8-dimethoxy-N,4-dimethyl-1-[4-(1-methyl-1H-1,2,3-triazol-4-yl)phenyl]-4,5-dihydro-3H-2,3-benzodiazepine-3-carboxamide]		40	230	140	240	350	130	130
CNC(=O)N1N=C(c2ccc(N3CC(F)C3)cc2)c2cc(OC)c(OC)cc2CC1C (racemic) [Example 129, (±)-1-[4-(3-fluoroazetidin-1-yl)phenyl]-7,8-dimethoxy-N,4-dimethyl-4,5-dihydro-3H-2,3-benzodiazepine-3-carboxamide]		50	220	180	420	580	150	120
CNC(=O)N1N=C(c2ccc(-c3sc(C)nc3C)cc2)c2cc(OC)c(OC)cc2CC1C (racemic) [Example 46, (±)-1-[4-(2,4-dimethylthiazol-5-yl)phenyl]-7,8-dimethoxy-N,4-dimethyl-4,5-dihydro-3H-2,3-benzodiazepine-3-carboxamide]		30	190	110	280	370	160	120
CNC(=O)N1N=C(c2ccc(-c3c(C)nn(C)c3C)cc2)c2cc(OC)c(OC)cc2CC1C (racemic) [Example 51, (±)-7,8-dimethoxy-N,4-dimethyl-1-[4-(1,3,5-trimethyl-1H-pyrazol-4-yl)phenyl]-4,5-dihydro-3H-2,3-benzodiazepine-3-carboxamide]		30	210	120	280	350	120	90
CNC(=O)N1N=C(c2ccc(-c3cccc(NS(C)(=O)=O)c3)cc2)c2cc(OC)c(OC)cc2CC1C (racemic) [Example 71, (±)-7,8-dimethoxy-N,4-dimethyl-1-{3′-[(methylsulphonyl)amino]biphenyl-4-yl}-4,5-dihydro-3H-2,3-benzodiazepine-3-carboxamide]		40	250	50	150	150	90	80
CNC(=O)N1N=C(c2ccc(-c3cccnc3C(F)(F)F)cc2)c2cc(OC)c(OC)cc2CC1C (racemic) [Example 48, (±)-7,8-dimethoxy-N,4-dimethyl-1-{4-[2-(trifluoromethyl)pyridin-3-yl]phenyl}-4,5-dihydro-3H-2,3-benzodiazepine-3-carboxamide]		110	190	220	470	650	250	260
CNC(=O)N1N=C(c2ccc(N3CCN(S(C)(=O)=O)CC3)cc2)c2cc(OC)c(OC)cc2CC1C (racemic) [Example 135, (±)-7,8-dimethoxy-N,4-dimethyl-1-{4-[4-(methylsulphonyl)piperazin-1-yl]phenyl}-4,5-dihydro-3H-2,3-benzodiazepine-3-carboxamide]		50	200	120	300	360	130	120
CNC(=O)N1N=C(c2ccc(N3CCCCC3)cc2)c2cc(OC)c(OC)cc2CC1C (racemic) [Example 139, (±)-7,8-dimethoxy-N,4-dimethyl-1-[4-(piperidin-1-yl)phenyl]-4,5-dihydro-3H-2,3-benzodiazepine-3-carboxamide]		40	210	130	310	380	130	110
CNC(=O)N1N=C(c2ccc(-c3cnoc3)cc2)c2cc(OC)c(OC)cc2CC1C (racemic) [Example 52, (±)-1-[4-(isoxazol-4-yl)phenyl]-7,8-dimethoxy-N-dimethyl-4,5-dihydro-3H-2,3-benzodiazepine-3-carboxamide]		50	240	140	350	450	150	130

Second part, led by results:

IC50 (B16F10 cells) [nM]	IC50 (BRD4 (BD1)) [nM]	IC50 (MOLM-13 cells) [nM]	IC50 (MV4-11 cells) [nM]	Structure (SMILES)	IC50 (Caov-3 cells) [nM]	IC50 (LOX-IMVI cells) [nM]	IC50 (MOLP-8 cells) [nM]	IC50 (KMS-12-PE cells) [nM]
	30	60	20	CNC(=O)N1N=C(c2ccc(-n3nc(-c4ccccc4)cc3C)cc2)c2cc(OC)c(OC)cc2C[C@@H]1C [Example 147.1, (4S)-7,8-dimethoxy-N,4-dimethyl-1-[4-(5-methyl-3-phenyl-1H-pyrazol-1-yl)phenyl]-4,5-dihydro-3H-2,3-benzodiazepine-3-carboxamide]	80	510	20	30
	110	230	130	CNC(=O)N1N=C(c2ccc(-n3ccc(-c4ccc(F)cc4)n3)cc2)c2cc(OC)c(OC)cc2C[C@@H]1C [Example 150.1, (4S)-1-{4-[3-(4-fluorophenyl)-1H-pyrazol-1-yl]phenyl}-7,8-dimethoxy-N,4-dimethyl-4,5-dihydro-3H-2,3-benzodiazepine-3-carboxamide]	340	340	230	180
	20	150	70	CNC(=O)N1N=C(c2ccc(N3CCC3)cc2)c2cc(OC)c(OC)cc2C[C@@H]1C [Example 128.2, (4S)-1-[4-(azetidin-1-yl)phenyl]-7,8-dimethoxy-N,4-dimethyl-4,5-dihydro-3H-2,3-benzodiazepine-3-carboxamide]	160	190	50	50
	30	80	50	CNC(=O)N1N=C(c2ccc(-n3nc(-c4ccccc4)cc3C3CC3)cc2)c2cc(OC)c(OC)cc2C[C@@H]1C [Example 148.1, (4S)-1-[4-(5-cyclopropyl-3-phenyl-1H-pyrazol-1-yl)phenyl]-7,8-dimethoxy-N,4-dimethyl-4,5-dihydro-3H-2,3-benzodiazepine-3-carboxamide]	130	90	50	50
	40	240	120	CNC(=O)N1N=C(c2ccc(N3CCOC3=O)cc2)c2cc(OC)c(OC)cc2C[C@@H]1C [Example 34.1, (4S)-7,8-Dimethoxy-N,4-dimethyl-1-[4-(2-oxooxazolidin-3-yl)phenyl]-4,5-dihydro-3H-2,3-benzodiazepine-3-carboxamide]	310	440	80	80
